Laboratory results taken from patent US20250320190A1, “Novel Inhibitors of Leucine Carboxyl Methyltransferase-1 (LCMT-1) and Methods of Use Thereof” (Temple University-Of The Commonwealth System of Higher …, priority 2024, published 2025).

Tests used:
HEK-293 cells = experiment: Cytotoxicity assay (calcein-AM); format: cell-based; conditions: Homo sapiens, HEK293; HEK-293; 48 hours; read-out: Log [μM] EC50 (converted)
Protocol: (§1) HS-5, HEK-293, MCF7, MDA-MB-231 and Rosi cells were seeded in 96-well optical bottom tissue culture plates (Corning, New York) at a density of 2.5×10^3 cells/well. After 24 hours, the media were changed to media containing LB-100 (Cayman Chemical Company, Ann Arbor, Michigan) or Compound 2 at various concentrations (50-0.31 μM). Control cells were given fresh media. After 48 hours the media were aspirated and plates were washed with warmed Dulbecco's phosphate-buffered saline (DPBS) with calcium and magnesium (Sigma-Aldrich, catalog #D1283). Cells were stained with 3 μM calcein-AM (AAT Bioquest, Pleasanton, California, catalog #22002) in DPBS for 30 minutes in the dark at 37° C. Plates were immediately read with a Biotek fluorescent plate reader (excitation 485 nm, emission 520 nm). The cytotoxicity assays were performed at least three times, each time with six replicates per condition.

HS-5 cells = experiment: Cytotoxicity assay (calcein-AM); format: cell-based; conditions: HS-5, 48 hours
Protocol: as §1

[1] = tested on: HEK-293 cells transfected with pCMV6-LCMT1; experiment: Cytotoxicity assay in LCMT-1-transfected cells; format: cell-based; conditions: HEK-293 pCMV6-LCMT1 vs HEK-293; 0.78-50 μM; 48 hours
Protocol: A mammalian LCMT-1 plasmid expression vector was obtained from Origene (pCMV6-LCMT1, catalog #RC200018). HEK-293 cells were transfected with the plasmid using PolyJet™ transfection reagent (SignaGen Laboratories, Frederick, Maryland) according to manufacturer's directions. After 5 hours, the medium was changed. The next day, the transfected cells were seeded in 96-well optical bottom tissue culture plates for cytotoxicity assays as previously described. After 24 hours, the medium was changed to medium containing Compound 2 at various concentrations (0.78-50 μM), or fresh medium with the carrier (dimethyl sulfoxide) in the case of the control. After 48 hours, cells were stained with calcein-AM and fluorescence was measured.

Jurkat cells = experiment: Radiosensitization assay (Ghost Dye 710 flow cytometry); format: cell-based, human; conditions: 10 Grays
Protocol: (§2) Jurkat and THP-1 cells were seeded in 6-well plates as described. After 24 hours LCMT-li was added at various concentrations as described. After 3 hours, cells were irradiated at 10 Grays. After 24 hours, cell viability was assessed with Ghost Dye™ 710 staining and flow cytometry as described.

THP-1 cells = experiment: as above; format: cell-based, human; conditions: 10 Grays
Protocol: as §2

SCC-15 cells = experiment: Western blots (pMLKL, ACSL4) with and without irradiation; format: cell-based, human; conditions: alone or with irradiation
Protocol: (§3) To better understand cellular outcomes associated with combining LCMT-li with radiotherapy (Adjemian, S. et al., 2020, Cell Death Dis 11(11): 1003), SCC-15, SCC-25, UM-SCC-12, UM-SCC-14a and UM-SCC-49 cells were treated with LCMT-li, radiotherapy or both as described for Annexin V assays. UM-SCC-69 cells were not used for immunoblots because insufficient numbers of cells survived irradiation to obtain sufficient lysates. After 24 hours, cells were lysed in radioimmunoprecipitation assay buffer containing protease inhibitors (Boster Bio, Pleasanton, California, catalog #AR1182-1) and phosphatase inhibitors (Santa Cruz Biotechnology catalog #sc-45044 and #sc-45045). Protein concentrations were measured with a bicinchoninic acid assay (G-Biosciences, Saint Louis, Missouri). Fifty micrograms of each lysate were used for bis-tris polyacrylamide gel electrophoresis. Resolved lysates were transferred to nitrocellulose membranes. Membranes were blocked with TBS with 5% bovine serum albumin before incubation with primary antibodies.
(§4) The anti-phospho-mixed lineage kinase domain like pseudokinase (pMLKL) antibody was obtained from R&D Systems (Minneapolis, Minnesota, catalog #MAB9187-100, 1:1,000 dilution). Antibodies obtained from Proteintech (Rosemont, Illinois) included anti-MLKL (catalog #66675-1-Ig, 1:5,000 dilution) and anti-β-actin (catalog #66009-1-Ig, 1:50,000 dilution). The anti-long-chain-fatty-acid-Coenzyme A ligase 4 (ACSL4) antibody was obtained from Santa Cruz Biotechnology (Dallas, Texas, catalog #sc-365230, 1:1,000 dilution). Appropriate IR-dye secondary antibodies obtained from Jackson ImmunoResearch Laboratories (West Grove, Pennsylvania) were used (Alexa Fluor® 790-conjugated anti-mouse (catalog #115-655-146, 1:50,000 dilution), Alexa Fluor® 680-conjugated anti-mouse (catalog #115-625-146, 1:50,000 dilution), and Alexa Fluor® 680-conjugated anti-rabbit (catalog #115-625-144, 1:50,000 dilution). Band densities were normalized to β-actin, the endogenous control. Twelve replicates were used for statistical analyses.

SCC-25 cells = experiment: as above; format: cell-based, human; conditions: alone and in combination with irradiation
Protocol: as §3, §4

UM-SCC-12 cells = experiment: as above; format: cell-based, human; conditions: LCMT-li alone
Protocol: as §3, §4

UM-SCC-49 cells = experiment: DDR analysis (activated γ-H2AX flow cytometry); format: cell-based, human; conditions: LCMT-li alone vs control cells, 24 hours
Protocol: Cells were treated with LCMT-li, radiotherapy or both as described for Annexin V assays. After 24 hours, cells were lifted with 0.25% trypsin, 2.21 mM EDTA, stained with Ghost Dye™ 710 and fixed with formaldehyde as described. Cells were washed with PBS with 1% BSA, and permeabilized with PBS with 0.1% Triton X-100 on ice for 10 minutes. Cells were pelleted and washed twice with PBS with 0.02% Triton X-100. Cells were resuspended in PBS with 1% BSA and 0.3% Tween-20, and stained with FITC-anti-activated-γ-H2AX (Biolegend, catalog #613404). Cells were pelleted and washed with PBS with 1% BSA and 0.1% sodium azide. DDR analyses were performed twice with 12 replicates, 104 cells/replicate.

SMILES: COC(=O)c1c(NC(=O)c2ccccc2C)sc(C(=O)Nc2cccc(C)c2)c1C [Compound 2, methyl 4-methyl-2-[(2-methylbenzoyl)amino]-5-[[(3-methylphenyl)amino]carbonyl]-3-thiophenecarboxylate]
- EC50 (HEK-293 cells): 4.68 µM
- EC50 (HS-5 cells; HS5, read-out: Log [μM] EC50 (converted)): 8.71 µM
- concentration at which cytotoxicity was significant (HS-5 cells): 20 µM
- effect of LCMT-1 overexpression on survival in the presence of Compound 2 [1]: significantly increased survival
- radiosensitization (Jurkat cells): did not demonstrate radiosensitization
- radiosensitization (THP-1 cells): demonstrated LCMT-li radiosensitization
- necroptosis (pMLKL) and ferroptosis (ACSL4) (SCC-15 cells): did not induce necroptosis or ferroptosis
- necroptosis (pMLKL expression) (SCC-25 cells): increased necroptosis
- necroptosis (pMLKL) and ferroptosis (ACSL4) (UM-SCC-12 cells): increased necroptosis and ferroptosis
- activated γ-H2AX expression (UM-SCC-49 cells): decreased activated γ-H2AX expression
